Experimental data from US20250221410A1, “SUBSTITUTED 2-C-AZINES AND SALTS THEREOF, AND USE THEREOF AS HERBICIDAL ACTIVE SUBSTANCES” (BAYER AKTIENGESELLSCHAFT, priority 2022, published 2025).

Experiments:
Format in all cases: in vivo
POLCO = assay: Pre-emergence herbicide efficacy at 80 g/ha, POLCO; details: Polygonum convolvulus, scored visually after about 3 weeks
Source text: (§1) Seeds of monocotyledonous and dicotyledonous weed plants and crop plants were placed in plastic or organic planting pots and covered with soil. The compounds of the invention, formulated in the form of wettable powders (WP) or as emulsion concentrates (EC), were then applied to the surface of the covering soil as aqueous suspension or emulsion with addition of 0.5% additive at a water application rate equivalent to 600 l/ha. After the treatment, the pots were placed in a greenhouse and kept under good growth conditions for the test plants. After about 3 weeks, the efficacy of the preparations was scored visually in comparison with untreated controls as percentages. For example, 100% activity=the plants have died, 0% activity=like control plants. Tables D1 to D12 below show the effects of selected compounds of the general formula (I) according to Table 1 on various harmful plants and an application rate corresponding to 80 g/ha, which were obtained by the experimental procedure mentioned above.

[1] = system: AMARE: Amaranthus retroflexus; assay: Pre-emergence herbicide efficacy at 80 g/ha, AMARE; details: scored visually after about 3 weeks
Source text: as §1

[2] = system: DIGSA: Digitaria sanguinalis; assay: Pre-emergence herbicide efficacy at 80 g/ha, DIGSA; details: scored visually after about 3 weeks
Source text: as §1

[3] = system: AMARE: Amaranthus retroflexus; assay: Post-emergence herbicidal efficacy at 80 g/ha, AMARE; details: visual rating about 3 weeks after treatment vs untreated controls
Method: (§2) Seeds of monocotyledonous and dicotyledonous weeds and crop plants were placed in sandy loam in plastic or organic planting pots, covered with soil and cultivated in a greenhouse under controlled growth conditions. 2 to 3 weeks after sowing, the test plants were treated at the one-leaf stage. The compounds of the invention, formulated in the form of wettable powders (WP) or as emulsion concentrates (EC), were then sprayed onto the green parts of the plants as aqueous suspension or emulsion with addition of 0.5% additive at a water application rate of 600 l/ha (converted). After the test plants had been kept in the greenhouse under optimum growth conditions for about 3 weeks, the activity of the preparations was rated visually in comparison to untreated controls. For example, 100% activity=the plants have died, 0% activity=like control plants. Tables B1 to B10 below show the effects of selected compounds of the general formula (I) according to Table 1 on various harmful plants and an application rate corresponding to 80 g/ha, which were obtained by the experimental procedure mentioned above.

VERPE: Veronica persica = assay: Post-emergence herbicidal efficacy at 80 g/ha, VERPE; details: visual rating about 3 weeks after treatment vs untreated controls
Method: as §2

Compound | Pre-emergence efficacy against POLCO in % (POLCO) [%] | Pre-emergence efficacy against AMARE in % [1] [%] | Pre-emergence efficacy against DIGSA in % [2] [%] | Post-emergence efficacy against AMARE [3] [%] | Post-emergence efficacy against VERPE (VERPE: Veronica persica) [%]
Cc1cccc(Cc2ncc(F)cn2)c1Oc1ncc(F)cn1 [Example 1-162] | 80 | 90 | – | – | –
Cc1cccc(Cc2ncc(Cl)cn2)c1Oc1ncc(F)cn1 [Example 1-165] | 80 | – | 80 | – | –
O=S(=O)(CCCC(F)(F)F)Oc1c(F)cccc1Cc1ncc(Br)cn1 [Example 1-186] | – | – | – | 90 | 90
O=S(=O)(CCC(F)(F)F)Oc1c(F)cccc1Cc1ncc(Br)cn1 [Example 1-187] | – | 100 | – | 90 | 90
Cc1cccc(Cc2ncc(Cl)cn2)c1OS(=O)(=O)CCC(F)(F)F [Example 1-189] | – | 80 | – | – | 90
O=S(=O)(CCCCl)Oc1c(F)cccc1Cc1ncc(Br)cn1 [Example 1-192] | – | – | – | – | 80
O=S(=O)(CCCCl)Oc1c(F)cccc1Cc1ncc(Cl)cn1 [Example 1-193] | – | – | – | 90 | 90
